According to patent US11919883B2, “Metalloenzyme inhibitor compounds” (Ji Xing Pharmaceuticals Hong Kong Limited, priority 2016, dated 2024):
Read-outs that look alike come from different tables or passages of the source.

How the values were obtained:
[1] = biological target: T1, recombinant human CYP11B1 (Homo sapiens, UniProt P15538); assay: CYP11B1 enzyme assay, enzyme enriched microsomes from V79-4 cells, cortisol by LC-MS; format: biochemical
T1 construct: made in house; host or cells: V79-4 cells (enzyme enriched microsomal fraction of cell lysates)
T1 sequence (P15538 25-503): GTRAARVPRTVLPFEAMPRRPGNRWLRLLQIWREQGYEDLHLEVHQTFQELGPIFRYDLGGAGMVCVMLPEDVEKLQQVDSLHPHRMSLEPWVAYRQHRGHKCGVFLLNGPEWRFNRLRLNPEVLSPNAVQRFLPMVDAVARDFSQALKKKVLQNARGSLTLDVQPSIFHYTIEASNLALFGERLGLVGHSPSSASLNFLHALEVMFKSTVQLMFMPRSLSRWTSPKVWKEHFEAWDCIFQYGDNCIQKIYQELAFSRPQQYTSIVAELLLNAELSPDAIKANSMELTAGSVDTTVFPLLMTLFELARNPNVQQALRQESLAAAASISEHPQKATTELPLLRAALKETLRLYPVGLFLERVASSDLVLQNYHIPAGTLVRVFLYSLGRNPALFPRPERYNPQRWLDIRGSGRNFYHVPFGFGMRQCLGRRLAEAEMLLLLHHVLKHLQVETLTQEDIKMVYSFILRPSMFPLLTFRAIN
Description: (§1) An enzyme enriched microsomal fraction was prepared from cellular lysates and subsequently used as the enzyme source for determining inhibitor IC50s. […] Enzyme assays for inhibitor screening employed CYP11B2 and CYP11B1 enzyme enriched microsomes and were run at the Km of the respective substrates. Products of the enzyme reactions, aldosterone for CYP11B2 or cortisol for CYP11B1, were measured by LC-MS. Assays were run under conditions of less than 20% substrate turnover. Inhibitor IC50s were generated by determining the product formation in the absence or presence of inhibitor at various concentrations. In the absence of the test compound, the product formed (Pt) in each data set was defined as 100% activity. In the absence of enzyme, the product formed (Pb) in each data set was defined as 0% activity. The percent activity in the presence of each inhibitor was calculated according to the following equation: % activity=(P−Pb)/(Pt−Pb), where P=the product formed in the presence of the inhibitor.

[2] = Rat liver microsome stability; format: in vitro ADME; conditions: for Rat LM Stability: % Compound remaining at 65 min in rat liver microsomes
[3] = biological target: T2, recombinant human CYP11B2 (Homo sapiens, UniProt P19099); assay: CYP11B2 enzyme assay, enzyme enriched microsomes from V79-4 cells, aldosterone by LC-MS; format: biochemical; conditions: for Selectivity: CYP11B1 IC50/CYP11B2 IC50
T2 construct: made in house; host or cells: V79-4 cells (enzyme enriched microsomal fraction of cell lysates)
T2 sequence (P19099 25-503): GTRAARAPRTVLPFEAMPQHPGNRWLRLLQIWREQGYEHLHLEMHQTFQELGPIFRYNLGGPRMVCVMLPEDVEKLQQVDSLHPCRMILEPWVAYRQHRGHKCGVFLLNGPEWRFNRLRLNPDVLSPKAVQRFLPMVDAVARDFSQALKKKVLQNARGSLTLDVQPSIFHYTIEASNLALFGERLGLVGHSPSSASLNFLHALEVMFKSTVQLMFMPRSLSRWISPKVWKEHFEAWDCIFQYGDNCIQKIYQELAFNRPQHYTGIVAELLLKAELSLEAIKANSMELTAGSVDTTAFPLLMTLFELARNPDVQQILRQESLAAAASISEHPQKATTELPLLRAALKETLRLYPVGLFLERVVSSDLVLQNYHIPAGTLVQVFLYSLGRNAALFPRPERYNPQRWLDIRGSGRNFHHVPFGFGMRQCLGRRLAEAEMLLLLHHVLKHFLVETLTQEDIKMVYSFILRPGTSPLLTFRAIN
Description: as §1

[4] = Cyno liver microsome stability; format: in vitro ADME, cynomolgus monkey; conditions: for Cyno LM Stability: % Compound remaining at 65 min in cyno liver microsomes; for metabolic stability when exposed to cynomolgus monkey liver microsomes: compared with pyridine counterpart Example 76
[5] = Cyno half life after PO dose; parameters: species or system cynomolgus monkeys; conditions: cynomolgus monkey; for half-life: in vivo, 1 mg/kg PO dose, read-out: Cyno T½ (converted)
[6] = IC50 ranges, run at Km of 11-deoxycortisol, read-out: hCYP11B1 IC50
[7] = Table 3 comparison, read-out: CYP11B1 IC50
[8] = IC50 ranges, run at Km of 11-deoxycorticosterone, read-out: hCYP11B2 IC50
[9] = Table 3 comparison, read-out: CYP11B2 IC50

Row | IC50 [1, 6] [nM] | IC50 [1, 7] [nM] | Rat LM Stability [2] [%] | Selectivity [3] | IC50 [3, 8] [nM] | IC50 [3, 9] [nM] | Cyno LM Stability [4] [%] | in vivo half-lives in cynomolgus monkeys [5] | half-life [5] [h] | metabolic stability when exposed to cynomolgus monkey liver microsomes [4] | metabolic stability when exposed to rat liver microsomes ([2]; compared with pyridine counterpart Example 76) | SMILES
1 | 1000 to 10000 | 4160 | 96 | 244 | 1 to 100 | 17 | 72 | – | – | – | – | Cc1ncncc1-c1nc2cc(F)c(F)cc2n1C1CC1 [Example 44, 1-Cyclopropyl-5,6-difluoro-2-(4-methylpyrimidin-5-yl)-1H-benzo[d]imidazole]
2 | 1000 to 10000 | 4720 | – | – | 1 to 100 | 17 | 106 | long in vivo half-lives | 16.9 | much greater metabolic stability | – | Fc1cc2nc(-c3cncnc3C(F)F)n(C3CC3)c2cc1F [Example 27, 1-Cyclopropyl-2-(4-(difluoromethyl)pyrimidin-5-yl)-5,6-difluoro-1H-benzo[d]imidazole]
3 | 1000 to 10000 | 6370 | 108 | 199 | 1 to 100 | 32 | 99 | long in vivo half-lives | 37.5 | much greater metabolic stability | much greater metabolic stability | Fc1cc2nc(-c3cncnc3C(F)(F)F)n(C3CC3)c2cc1F [Example 30, 1-Cyclopropyl-5,6-difluoro-2-(4-(trifluoromethyl)pyrimidin-5-yl)-1H-benzo[d]imidazole]
4 | 1000 to 10000 | 5380 | 0 | 134 | 1 to 100 | 40 | 70 | – | – | – | – | Fc1ccc2nc(-c3cncnc3)n(C3CC3)c2c1 [Example 1, 1-Cyclopropyl-6-fluoro-2-(pyrimidin-5-yl)-1H-benzo[d]imidazole]
